How the values were obtained:
[1] = Plasma pharmacokinetics of BIA 10-2474 and metabolites; type: in vivo, human
[2] = cited from earlier work
FAAH = target: T1, FAAH (Homo sapiens, UniProt O00519); settings: cited from earlier work
T1 sequence (O00519 1-579): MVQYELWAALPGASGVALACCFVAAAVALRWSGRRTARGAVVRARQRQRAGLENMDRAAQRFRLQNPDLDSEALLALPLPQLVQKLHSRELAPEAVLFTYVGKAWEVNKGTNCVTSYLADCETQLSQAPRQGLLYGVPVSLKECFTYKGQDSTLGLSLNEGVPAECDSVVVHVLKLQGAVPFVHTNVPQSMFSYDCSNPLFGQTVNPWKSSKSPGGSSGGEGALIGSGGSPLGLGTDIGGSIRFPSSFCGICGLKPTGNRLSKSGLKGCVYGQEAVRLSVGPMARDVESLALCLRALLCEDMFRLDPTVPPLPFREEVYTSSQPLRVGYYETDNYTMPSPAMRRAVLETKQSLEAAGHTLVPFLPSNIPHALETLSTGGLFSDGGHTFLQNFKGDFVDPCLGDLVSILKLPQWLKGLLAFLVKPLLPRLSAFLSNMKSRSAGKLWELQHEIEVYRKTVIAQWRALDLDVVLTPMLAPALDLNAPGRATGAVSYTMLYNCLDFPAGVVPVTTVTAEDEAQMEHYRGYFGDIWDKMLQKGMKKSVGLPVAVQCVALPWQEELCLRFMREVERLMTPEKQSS

[3] = 20 mg BIA 10-2474 once daily, Day 10
[4] = after single dose 40 mg BIA 10-2474
[5] = after single dose 100 mg BIA 10-2474
[6] = repeated dose levels below 20 mg for 10 days
[7] = 20 mg BIA 10-2474 once daily, Day 1

SMILES | AUC0–t of metabolite [1, 3] | Cmax of metabolite [1, 3] | tmax of metabolite [1, 3] | AUC0-t of metabolite [1, 4] | Cmax of metabolite [1, 4] | tmax of metabolite [1, 4] | AUC0-t of metabolite [1, 5] | Cmax of metabolite [1, 5] | tmax of metabolite [1, 5] | plasma abundance of metabolite [1, 6] | plasma abundance of metabolite ([1]; single dose levels below 40 mg) | tested dose as multiple of the dose required for complete FAAH inhibition (FAAH) | further results
CN(C(=O)n1cnc(-c2cccnc2)c1)C1CCCCC1 [BIA 10-2445] | 105 (64.7) ng⋅hour/mL | 8.27 (3.42) ng/mL | 4.0 (4.0–12.0) hour | 51.3 (71.4) ng hour/mL | 4.66 (44.7) ng/mL | 12.0 (3.0–24.0) hour | 303 (68.3) ng hour/mL | 11.4 (27.1) ng/mL | 12.0 (3.0–24.0) hour | undetectable | undetectable | – | –
O=C(NC1CCCCC1)n1cnc(-c2ccc[n+]([O-])c2)c1 [BIA 10-2583] | – | – | – | – | – | – | – | – | – | undetectable | undetectable | – | –
CN(C(=O)n1cnc(-c2cccnc2)c1)[C@H]1CC[C@H](O)CC1 [BIA 10-2631, N-(trans-4-hydroxycyclohexyl)-N-methyl-4-pyridin-3-yl-1H-imidazole-1-carboxamide] | 203 (197) ng⋅hour/mL | 7.41 (3.9) ng/mL | 4.0 (2.0–24.0) hour | – | – | – | 359 (36.3) ng hour/mL | 7.1 (30.9) ng/mL | 18.0 (2.0–24.0) hour | undetectable | undetectable | – | –
CN(C(=O)n1cnc(-c2ccc[n+]([O-])c2)c1)[C@H]1CC[C@H](O)CC1 [BIA 10-2639, N-(trans-4-hydroxycyclohexyl)-N-methyl-4-(1-oxidopyridin-3-yl)l-1H-imidazole-1-carboxamide] | 47.3 (20.6) ng⋅hour/mL | 5.8 (1.7) ng/mL | 1.0 (1.0–2.0) hour | 59.2 (30.6) ng hour/mL | 8.09 (30.7) ng/mL | 2.0 (1.0–3.0) hour | 206 (40.7) ng hour/mL | 19.6 (29.1) ng/mL | 2.0 (1.0–3.0) hour | undetectable | undetectable | – | AUC0–t of metabolite [1, 7]: 21.8 (6.8) ng⋅hour/mL; AUC0–∞ of metabolite [1, 7]: 26.6 (8.5) ng⋅hour/mL; Cmax of metabolite [1, 7]: 4.1 (0.5) ng/mL; t1/2 of metabolite [1, 7]: 9.94 (1.79) h; tmax of metabolite [1, 7]: 1.0 (1.0–2.0) hour; t1/2 of metabolite [1, 4]: 9.78 (67.1) hour; AUC0-∞ of metabolite [1, 5]: 271 (35.6) ng hour/mL; t1/2 of metabolite [1, 5]: 9.20 (15.2) hour
O=C(Nc1cnccc1Cl)N1CCN(Cc2ccc3c(c2)OC(F)(F)O3)CC1 [JNJ-42165279] | – | – | – | – | – | – | – | – | – | – | – | at least 10 times | half-life [2]: 8 to 14 h; duration of FAAH inhibition (FAAH): > 24 h
O=C(Nc1cccnn1)N1CCC(=Cc2cccc(Oc3ccc(C(F)(F)F)cn3)c2)CC1 [PF-04457845] | – | – | – | – | – | – | – | – | – | – | – | 133 times | FAAH inhibition (FAAH; for 6 days or more): more than 90%

Reference: PMC9292215 (Clinical Pharmacology and Therapeutics, 2021)
